Converted amounts (≈) assume the structure as drawn. Like-named read-outs stand apart in the source and are kept apart here. Where a SMILES comes first, the peptide text is derived from it. [ ]: non-standard residue; d: D form. The star is where a group is joined. X1 = O=c1[nH]c(=O)n([C@@H]2O[C@H](CO*)[C@@H](O)[C@H]2O)cc1F; Orn(N5-OH,N5-Ac) = CC(=O)N(O)CCC[C@H](N)C(=O)O
Tests used:
Type in all cases: cell-based
Streptococcus A C203 = assay: MIC by agar dilution method; set-up: key: NG: no growth
Text: (§1) The following Table 3 lists the minimum inhibitory concentrations obtained by the agar dilution method against Gram-positive and Gram-negative organisms with 5'-O-(valinyl)-5-fluorouridine and comparators ampicillin and 5-FC.

[1] = test system: Gram-positive bacteria including the methicillin resistant staphylococci; assay: in vitro growth inhibition of Gram-positive bacteria including methicillin resistant staphylococci
Text: as §1

Enterobacter cloacae EB5 = assay: MIC by agar dilution method; settings: read-out: Minimum Inhibitory Concentration
Text: as §1

Serratia SE3 = assay: MIC by agar dilution method; settings: read-out: Minimum Inhibitory Concentration
Text: as §1

[2] = test system: Staphylococcus epidermis 70; assay: MIC by agar dilution method; settings: read-out: Minimum Inhibitory Concentration
Text: as §1

Shigella sonnei N9 = assay: MIC by agar dilution method; settings: N9, read-out: Minimum Inhibitory Concentration
Text: as §1

[3] = test system: Staphylococcus epidermis 222; assay: MIC by agar dilution method; settings: read-out: Minimum Inhibitory Concentration
Text: as §1

[4] = test system: Staphylococcus aureus S13E; assay: MIC by agar dilution method; settings: read-out: Minimum Inhibitory Concentration
Text: as §1

Enterococcus D X66 = assay: MIC by agar dilution method
Text: as §1

[5] = test system: Staphylococcus aureus X 400; assay: MIC by agar dilution method
Text: as §1

Salmonella X514 = assay: MIC by agar dilution method; settings: read-out: Minimum Inhibitory Concentration
Text: as §1

E. Coli TEM = assay: MIC by agar dilution method; settings: Escherichia coli, read-out: Minimum Inhibitory Concentration
Text: as §1

[6] = test system: Staphylococcus aureus X 1.1; assay: MIC by agar dilution method; settings: X1.1, read-out: Minimum Inhibitory Concentration
Text: as §1

Morganella morganii PR15 = assay: MIC by agar dilution method; settings: read-out: Minimum Inhibitory Concentration
Text: as §1

Streptococcus pn PARK = assay: MIC by agar dilution method; settings: read-out: Minimum Inhibitory Concentration
Text: as §1

[7] = test system: Enterobacter aerogenes C32; assay: MIC by agar dilution method; settings: Klebsiella aerogenes, read-out: Minimum Inhibitory Concentration
Text: as §1

Proteus stu PR33 = assay: MIC by agar dilution method; settings: read-out: Minimum Inhibitory Concentration
Text: as §1

Klebsiella X26 = assay: MIC by agar dilution method; settings: read-out: Minimum Inhibitory Concentration
Text: as §1

E. Coli EC14 = assay: MIC by agar dilution method; settings: Escherichia coli, read-out: Minimum Inhibitory Concentration
Text: as §1

Pseudomonas PS19 = assay: MIC by agar dilution method
Text: as §1

Salmonella 1335 = assay: MIC by agar dilution method; settings: read-out: Minimum Inhibitory Concentration
Text: as §1

Serratia X99 = assay: MIC by agar dilution method; settings: read-out: Minimum Inhibitory Concentration
Text: as §1

[8] = test system: Staphylococcus aureus V 41; assay: MIC by agar dilution method; settings: V41, read-out: Minimum Inhibitory Concentration
Text: as §1

[9] = test system: Enterobacter aerogenes EB17; assay: MIC by agar dilution method; settings: Klebsiella aerogenes, read-out: Minimum Inhibitory Concentration
Text: as §1

Enterococcus D 2041 = assay: MIC by agar dilution method; settings: D2041, read-out: Minimum Inhibitory Concentration
Text: as §1

Proteus rett. C24 = assay: MIC by agar dilution method; settings: read-out: Minimum Inhibitory Concentration
Text: as §1

[10] = test system: Gram-negative microorganisms; assay: activity against Gram-negative microorganisms; settings: compared with Gram-positive bacteria
Text: as §1

Candida albicans = assay: in vitro test against Candida albicans, zone of inhibition, Lee's medium; settings: 37° C.
Text: The test compound of Table 3,5'-O-(valinyl)-5-fluorouridine, was coupled to the triornithyl peptide represented by the formula 2 wherein p is 3 by following the reaction Scheme 1 above and substituting valine for glycine to provide the tetrapeptide of the invention. […] Lee, K. L.; Buckley, H. R.; Campbell, C. C., Saubouraudia, 1975, 13, 148. The tetrapeptide gave a 35 mm diameter zone of inhibition at a concentration of the compound of 25 nmol. while at a concentration of 5 nmol. the zone of inhibition was 26 mm.

[11] = DX66, Enterococcus D X66, agar dilution, read-out: Minimum Inhibitory Concentration
[12] = X400, Staphylococcus aureus X 400, agar dilution, read-out: Minimum Inhibitory Concentration
[13] = Pseudomonas PS19, agar dilution, read-out: Minimum Inhibitory Concentration

SMILES: CC(C)[C@H](N)C(=O)OC[C@H]1O[C@@H](n2cc(F)c(=O)[nH]c2=O)[C@H](O)[C@@H]1O [Test Compd, 5'-O-(L-valinyl)-5-fluorouridine]
- Minimum Inhibitory Concentration (Streptococcus A C203): NG
- growth inhibition of Gram-positive bacteria / methicillin-resistant staphylococcus (in words) [1]: inhibited the in vitro growth of Gram-positive bacteria including the methicillin resistant staphylococci
- growth inhibition of Gram-positive bacteria / methicillin-resistant staphylococcus (in words) ([1]; listed as 5'-O-(valinyl)-5-fluorouridine): inhibits the growth of methicillin-resistant staphylococcus
- MIC (Enterobacter cloacae EB5): 32 µg/mL (≈ 88.6 µM)
- MIC (Serratia SE3): 16 µg/mL (≈ 44.3 µM)
- MIC [2]: 0.03 µg/mL (≈ 0.083 µM)
- MIC (Shigella sonnei N9): 64 µg/mL (≈ 177 µM)
- MIC [3]: 1 µg/mL (≈ 2.77 µM)
- MIC [4]: 0.125 µg/mL (≈ 0.346 µM)
- MIC (Enterococcus D X66; [11]): 32 µg/mL (≈ 88.6 µM)
- MIC [5, 12]: 0.25 µg/mL (≈ 0.692 µM)
- MIC (Salmonella X514): 32 µg/mL (≈ 88.6 µM)
- MIC (E. Coli TEM): 16 µg/mL (≈ 44.3 µM)
- MIC [6]: 0.5 µg/mL (≈ 1.38 µM)
- MIC (Morganella morganii PR15): 8 µg/mL (≈ 22.1 µM)
- MIC (Streptococcus pn PARK): 128 µg/mL (≈ 354 µM)
- MIC [7]: 64 µg/mL (≈ 177 µM)
- MIC (Proteus stu PR33): 32 µg/mL (≈ 88.6 µM)
- MIC (Klebsiella X26): 32 µg/mL (≈ 88.6 µM)
- MIC (E. Coli EC14; E. Coli EC14, agar dilution): 128 µg/mL (≈ 354 µM)
- MIC (Pseudomonas PS19; [13]): 128 µg/mL (≈ 354 µM)
- MIC (Salmonella 1335): 32 µg/mL (≈ 88.6 µM)
- MIC (Serratia X99): 16 µg/mL (≈ 44.3 µM)
- MIC [8]: 0.25 µg/mL (≈ 0.692 µM)
- MIC [9]: 64 µg/mL (≈ 177 µM)
- MIC (Enterococcus D 2041): 2 µg/mL (≈ 5.54 µM)
- MIC (Proteus rett. C24): 16 µg/mL (≈ 44.3 µM)
- activity against Gram-negative microorganisms (in words) [10]: also active against Gram-negative microorganisms but to a lesser degree

SMILES: Nc1nc(=O)n([C@@H]2O[C@H](CO)[C@@H](O)[C@H]2O)cc1F [Example 5-FC, 5-fluorocytidine]
- MIC [2]: 16 µg/mL (≈ 61.3 µM)
- MIC [3]: 16 µg/mL (≈ 61.3 µM)
- MIC [4]: 2 µg/mL (≈ 7.66 µM)
- MIC (Enterococcus D X66; [11]): 0.25 µg/mL (≈ 0.957 µM)
- MIC [5, 12]: 8 µg/mL (≈ 30.6 µM)
- MIC [6]: 8 µg/mL (≈ 30.6 µM)
- MIC (E. Coli EC14): > 128 µg/mL
- MIC (Pseudomonas PS19; Pseudomonas, PS19, read-out: Minimum Inhibitory Concentration): > 128 µg/mL
- MIC [8]: 8 µg/mL (≈ 30.6 µM)
- MIC (Enterococcus D 2041): 4 µg/mL (≈ 15.3 µM)

SMILES: CC(=O)N(O)CCC[C@H](NC(=O)[C@H](CCCN(O)C(C)=O)NC(=O)[C@@H](N)CCCN(O)C(C)=O)C(=O)N[C@H](C(=O)OC[C@H]1O[C@@H](n2cc(F)c(=O)[nH]c2=O)[C@H](O)[C@@H]1O)C(C)C [tetrapeptide] (H-[Orn(N5-OH,N5-Ac)][Orn(N5-OH,N5-Ac)][Orn(N5-OH,N5-Ac)]V-X1)
- diameter zone of inhibition (Candida albicans; 5 nmol): 26 mm
- diameter zone of inhibition (Candida albicans; 25 nmol): 35 mm
- activity against Candida albicans (in words) (Candida albicans; in vitro): exhibited activity against Candida albicans

SMILES: CC1(C)S[C@@H]2[C@H](NC(=O)[C@H](N)c3ccccc3)C(=O)N2[C@H]1C(=O)O [Ampicillin]
- MIC (Enterobacter cloacae EB5): 0.25 µg/mL (≈ 0.715 µM)
- MIC (Serratia SE3): 0.5 µg/mL (≈ 1.43 µM)
- MIC [2]: 8 µg/mL (≈ 22.9 µM)
- MIC (Shigella sonnei N9): 0.6 µg/mL (≈ 1.72 µM)
- MIC [3]: 2 µg/mL (≈ 5.72 µM)
- MIC [4]: 128 µg/mL (≈ 366 µM)
- MIC (Enterococcus D X66; Enterococcus, DX66, read-out: Minimum Inhibitory Concentration): 128 µg/mL (≈ 366 µM)
- MIC ([5]; Staphylococcus aureus, X400, read-out: Minimum Inhibitory Concentration): 128 µg/mL (≈ 366 µM)
- MIC (Salmonella X514): 0.06 µg/mL (≈ 0.172 µM)
- MIC (E. Coli TEM): 0.03 µg/mL (≈ 0.0859 µM)
- MIC [6]: 2 µg/mL (≈ 5.72 µM)
- MIC (Morganella morganii PR15): 1 µg/mL (≈ 2.86 µM)
- MIC [7]: 0.5 µg/mL (≈ 1.43 µM)
- MIC (Proteus stu PR33): 0.06 µg/mL (≈ 0.172 µM)
- MIC (Klebsiella X26): 0.008 µg/mL (≈ 0.0229 µM)
- MIC (E. Coli EC14; E. Coli EC14, agar dilution): 0.06 µg/mL (≈ 0.172 µM)
- MIC (Pseudomonas PS19; [13]): 32 µg/mL (≈ 91.6 µM)
- MIC (Salmonella 1335): 0.125 µg/mL (≈ 0.358 µM)
- MIC (Serratia X99): 0.25 µg/mL (≈ 0.715 µM)
- MIC [8]: 4 µg/mL (≈ 11.4 µM)
- MIC [9]: 0.06 µg/mL (≈ 0.172 µM)
- MIC (Enterococcus D 2041): 1 µg/mL (≈ 2.86 µM)
- MIC (Proteus rett. C24): 0.06 µg/mL (≈ 0.172 µM)

Source: US5783689A, “Antibacterial and antifungal nucleosides” (University of Notre Dame, priority 1996, dated 1998)
